No end group written: not given here.
Columns and labels:
bacteria = settings: cited from earlier work
H&E lung pathology = assay type: in vivo, rat; settings: MRSA-induced pneumonic rats
Experimental: (C) Pathological evaluation via H&E staining in pneumonic model rats. […] Data were analyzed using a two-tailed Student's t test and are plotted as the mean ± SD for each condition. n = 3; *, P < 0.05; and **, P < 0.01.
(§1) MRSA and MRPA were isolated from the Affiliated Hospital of Xuzhou Medical University (Jiangsu, China) and obtained from Professor Shengqi Wang (Xuzhou Medical University, Jiangsu, China). Bacterial pneumonia rats were prepared by spraying MRSA suspensions into the lungs via the trachea with a long soft plastic tube, as described in our previous research ([30]). The rats were inoculated using tracheal intubation with 0.2 ml of 10^8 CFU/ml MRSA suspensions. After 8 h, the rats were given medication. […] All of the medicines were sprayed into the rat lungs through the trachea using an intratracheal MicroSprayer Aerosolizer (IA-1B; PennCentury Inc., Wyndmoor, PA, USA) once daily for 3 days without anesthesia.
Preparation of pneumonic model rats and medicine administration. The
(§2) clinically isolated bacterial strain MRSA was cultivated in LB medium at 37 °C with
(§3) continuous shaking (200 rpm) overnight. Then, the concentration of MRSA was
(§4) determined by the optical density (OD) at 600 nm based on the turbidity of the cell
suspension. Subsequently, the bacterial suspension was diluted with LB medium, and
a final density of 10^8 CFU/mL was obtained for animal testing. Male […]

MRSA = assay: bacterial clearance in lung lavage fluid of rats with MRSA-induced pneumonia; assay type: in vivo, rat; settings: HNP-1 0.1 ml of 20 μg/ml (2 μg); penicillin 12 μg/ml; intratracheal spray once daily for 3 days
Experimental: (B) Comparison of the bacterial counts in the different treatment groups. The number of MRSA isolated from lung lavage fluid were counted on the agar-containing culture plates followed by culturing for 36 h at 37°C. […] Data were analyzed using a two-tailed Student's t test and are plotted as the mean ± SD for each condition. n = 3; *, P < 0.05; and **, P < 0.01.
as §1
Preparation of pneumonic model rats and medicine administration.
as §2, §3, §4
suspension. […]

RecA [1] = settings: real-time RT-PCR, mRNA normalized to 16s
Experimental: (F) Quantification of RecA mRNA in MRSA by real-time RT-PCR.
Analysis of gene expression by real-time RT-PCR. mRNA from RecA and
LexA was measured by real-time PCR (RT-PCR). XPX-1 cells harvested 3 h after
induction and the total RNA was extracted with the TRIzol® Reagent (Thermo
Fisher Scientific, Waltham, MA, USA) according to the manufacturer’s instruction.
Reversed transcription was performed with the ReverTra Ace qPCR RT Kit
(TOYOBO, Osaka, Japan). The primer sequence of RecA and LexA was as follows:
RecA (forward 5’-[sequence]-3’, reverse
5’-[sequence]-3’); LexA (forward
5’-[sequence]-3 ’ , reverse 5 ’
-[sequence]-3’ ). The relative expression level of RecA and
LexA was normalized to 16s by using the 2- CT method(11).

RecA [2] = assay: RecA mRNA by real-time RT-PCR in MRPA; assay type: cell-based; settings: mRNA normalized to 16s
RecA [3] = system: RecA
Experimental: The inclusion bodies were solubilized in denaturing solution (20 mM Tris, 8 M urea, 20 mM DTT, pH 8.5) at a ratio of 1:20 (grams of inclusion body wet weight: mL of volume) and the suspension was shaken gently for 4 h at room temperature.
After centrifugation at 12,000 ×g for 15 min, the supernatant was diluted directly into refolding buffer (20 mM Tris,1 mM cystine, 3 mM cysteine, 2 M urea, pH 10.0).
After refolding at 4°C overnight, the sample pH was adjusted to 4.5 and the sample was centrifuged at 4,000 ×g for 20 min.
The solubilized protein samples were loaded onto a pre-equilibrated HiTrap Chelating HP (5 mL, GE Healthcare, Chicago, IL, USA) ata flow rate of 10 mL/min inbuffer A (20 mM Tris, 2 M NaCl, pH 7.5). […] The purified preproHNP-1 was quantified with BCA according to standard procedures. […]
imidazole) and analyzed by a 12% Tris-Tricine gel followed by Coomassie brilliant blue G-250 staining. […]
Proteomics analysis. […] After in-gel digestion by trypsin, the samples were analyzed by LC-MS/MS using a homemade column (75 μm internal diameter ×15 cm long) packed with 3 μm C18 reverse phase beads (Michrom Bioresources, Inc., Auburn, CA, USA), a 60 min gradient was performed on an LTQ-Orbitrap Velos mass spectrometer (Thermo Fisher Scientific, San Jose, CA, USA). […]

E. coli strain XPX-1 = assay: growth and viable count of E. coli XPX-1 after IPTG-induced expression; assay type: cell-based; settings: XPX-1, 1 mM IPTG, Luria-Bertani medium, 37°C
Experimental: XPX-1 cells were grown to an approximate optical density (OD600) of 0.4 in 20 ml of Luria−Bertani medium containing kanamycin (50 μg/ml) at 37°C, and then IPTG was added at a final concentration of 1 mM to induce the expression of preproHNP-1.
(B) Growth curves of E. coli strain XPX-1 containing pET-28a(+)-preproHNP-1 with (+IPTG) or without (−IPTG) 1 mM IPTG induction. […] Data were analyzed using a two-tailed Student's t test and plotted as the mean ± SD for each condition. **, P < 0.01.
The induction time points of IPTG are labeled as indicated. […] The induction time points of IPTG are labeled as indicated. (D) Bacterial colony count after IPTG induction. The induction time points are labeled as indicated. The number of viable cells were counted after growing for 16 h on plates containing Luria-Bertani broth media. […] The growth curve of E. coli strain XPX-1 with 1 mM IPTG induction as a positive control and XPX-1 without IPTG induction as a negative control. […] Data were analyzed using a two-tailed Student's t test and are plotted as the mean ± SD for each condition. *, P < 0.05 and **, P < 0.01.
E. coli strains and plasmids.
After verifying the sequence, the vectors were transformed into E. coli BL21 (DE3) competent cells to obtain XPX-1, which was used to express the recombinant protein preproHNP-1. […]

E. coli = assay: growth curve of E. coli treated with purified recombinant peptides; assay type: cell-based; settings: 20 μg/ml; compared with regular growth medium without IPTG induction
Experimental: Data were analyzed using a two-tailed Student's t test and are plotted as the mean ± SD for each condition. *, P < 0.05 and **, P < 0.01.
PreproHNP-1 was purified from E. coli under denaturing conditions ([48]), as described in the Supplementary Materials and Methods. […] The mixture was disrupted using a Soniprep Sonicator (Scientz, Ningbo, China) at the power of 25% for 25 cycles. The resultant TCL was centrifuged at 10,000 g for 25 min. The supernatant was loaded into an Amicon Ultra-0.5 ml centrifugal concentration unit (3 kDa MWCO, Millipore, Burlington, MA, USA) and centrifuged at 5,000 g for 10 min to recover the filtered solution. This step was repeated three times. All filtered solutions were pooled for quality checks and then diluted to a concentration of 20 μg/ml before use in antimicrobial activity assays.
E. coli strains and plasmids. E. coli strain BL21 (DE3), E. coli strain DH5α and vector pET-28a(+) were stored at−80 °C in our laboratory. The DNA sequence of preproHNP-1 and flanked with EcoR I and Xho I was generated from synthetic oligonucleotides according to a reference sequence (NM_004084.3). The products were ligated into the pET-28a(+) vector encoding a fragment with six histidine (His6)
The resulting vectors were transformed into the E. coli DH5α cells and after isolation and purification, they were subjected to the DNA sequence analysis. […]

Molecule: PR-39
- AMP-induced filamentation (bacteria): filamentation has also been described

Molecule: indolicidin (ILPWKWPWWPWRR; ends and bridges not checked; UniProt P33046 131-143, looked up) [antimicrobial peptide cited for filamentation]
- AMP-induced filamentation (bacteria): filamentation has also been described

Molecule: penicillin
- exudation, inflammation, hemorrhage (H&E) (H&E lung pathology): alleviated these symptoms to a certain degree
- bacterial clearance effect (MRSA): neither HNP-1 nor penicillin treatment had any effect
- RecA expression in MRSA (RecA [1]): increased significantly
- RecA expression in MRPA (RecA [2]): increased significantly

Molecule: HNP-2: antimicrobial peptide cited for filamentation (CYCRIPACIAGERRYGTCIYQGRLWAFCC; ends and bridges not checked; cysteine pairing not given here; UniProt P59665 66-94, looked up)
- AMP-induced filamentation (bacteria): filamentation has also been described

B1: preproHNP-1: full-length precursor of HNP-1 tagged with six histidine residues, cloned into pET-28a(+), expressed in E. coli XPX-1 (protein, UniProt P59665 1-94, looked up)
chain: MRTLAILAAILLVALQAQAEPLQARADEVAAAPEQIAADIPEVVVSLAWDESLAPKHPGSRKNMACYCRIPACIAGERRYGTCIYQGRLWAFCC
modifications: full-length His6 tag
- interaction with RecA (RecA [3]; anti-RecA co-immunoprecipitation): HNP-1, but not full length 6x His-tagged preproHNP-1, interacted with RecA
- co-precipitation with RecA over induction time (RecA [3]; anti-RecA immunoprecipitation, Western blot with anti-HNP-1): decreased with time
- OD600 reached after induction (E. coli strain XPX-1): ~1
- growth curve of E. coli in medium with purified protein (E. coli): did not differ from those cultured in regular growth medium without IPTG induction

B2: HNP-5: antimicrobial peptide cited for filamentation (peptide, UniProt Q01523 20-94, looked up)
Defensin alpha 5: ESLQERADEATTQKQSGEDNQDLAISFAGNGLSALRTSGSQARATCYCRTGRCATRESLSGVCEISGRLYRLCCR
modifications: Defensin-5
notes: antimicrobial peptide cited for filamentation
- AMP-induced filamentation (bacteria): filamentation has also been described

— publication PMC8754131 (Microbiology Spectrum, 2022)
